Laboratory results published in the NIST ThermoML archive (doi:10.1021/je900124n).
Where “and” joins values, the source holds several entries; their conditions need not be identical. Equal entries are not always repeated. Numbers after ± are expanded uncertainties.

Settings: Fluid (supercritical or subcritical phases), Buoyancy - hydrostatic balance with magnetic suspension - two sinkers

CCC [propane]
Settings | mass density
369.83 K, 4284.6 kPa | 281.214 ± 0.94 kg/m3 and 281.229 ± 0.94 kg/m3 and 281.215 ± 0.94 kg/m3
369.83 K, 4284.7 kPa | 281.219 ± 0.94 kg/m3 and 281.22 ± 0.94 kg/m3
369.83 K, 4985.9 kPa | 337.354 ± 0.069 kg/m3 and 337.357 ± 0.069 kg/m3
369.83 K, 4986 kPa | 337.358 ± 0.069 kg/m3 and 337.357 ± 0.069 kg/m3
369.83 K, 4986.1 kPa | 337.356 ± 0.069 kg/m3 and 337.357 ± 0.069 kg/m3
369.83 K, 8381.5 kPa | 391.64 ± 0.051 kg/m3
369.83 K, 8382 kPa | 391.644 ± 0.051 kg/m3 and 391.642 ± 0.051 kg/m3 and 391.641 ± 0.051 kg/m3
369.83 K, 8382.2 kPa | 391.644 ± 0.051 kg/m3
369.83 K, 8382.4 kPa | 391.643 ± 0.051 kg/m3
369.83 K, 8382.6 kPa | 391.644 ± 0.051 kg/m3
369.85 K, 311.85 kPa | 4.5865 ± 0.0029 kg/m3 and 4.5866 ± 0.0029 kg/m3
369.85 K, 311.86 kPa | 4.5867 ± 0.0029 kg/m3
369.85 K, 554.46 kPa | 8.3301 ± 0.0033 kg/m3 and 8.3303 ± 0.0033 kg/m3
369.85 K, 927.78 kPa | 14.4328 ± 0.0041 kg/m3 and 14.4326 ± 0.0041 kg/m3
369.85 K, 927.79 kPa | 14.4329 ± 0.0041 kg/m3
369.85 K, 1387.4 kPa | 22.6395 ± 0.028 kg/m3 and 22.6384 ± 0.028 kg/m3 and 22.6393 ± 0.028 kg/m3
369.85 K, 1387.5 kPa | 22.64 ± 0.028 kg/m3 and 22.6401 ± 0.028 kg/m3
369.85 K, 2120.4 kPa | 37.8404 ± 0.033 kg/m3 [middle of 5 runs]
369.85 K, 2871.7 kPa | 57.8231 ± 0.041 kg/m3
369.85 K, 2871.8 kPa | 57.8298 ± 0.041 kg/m3 and 57.8251 ± 0.041 kg/m3
369.85 K, 3827.6 kPa | 100.815 ± 0.11 kg/m3 and 100.816 ± 0.11 kg/m3
369.85 K, 3827.7 kPa | 100.817 ± 0.11 kg/m3
369.85 K, 4188.1 kPa | 146.906 ± 0.22 kg/m3
369.85 K, 4188.2 kPa | 146.91 ± 0.22 kg/m3
369.85 K, 4188.3 kPa | 146.915 ± 0.22 kg/m3 and 146.912 ± 0.22 kg/m3
369.85 K, 4188.4 kPa | 146.917 ± 0.22 kg/m3
369.85 K, 4241.5 kPa | 177.435 ± 0.2 kg/m3
369.85 K, 4241.8 kPa | 177.526 ± 0.2 kg/m3 and 177.58 ± 0.2 kg/m3 and 177.506 ± 0.2 kg/m3
369.85 K, 4241.9 kPa | 177.65 ± 0.2 kg/m3
369.85 K, 4248.2 kPa | 218.49 ± 0.2 kg/m3 and 218.749 ± 0.2 kg/m3 and 220.705 ± 0.21 kg/m3
369.85 K, 4248.3 kPa | 224.686 ± 0.21 kg/m3 and 220.268 ± 0.21 kg/m3
369.85 K, 4248.4 kPa | 235.513 ± 0.21 kg/m3 and 235.434 ± 0.21 kg/m3
369.85 K, 4248.6 kPa | 231.541 ± 0.21 kg/m3 and 236.898 ± 0.21 kg/m3
369.85 K, 4258.6 kPa | 265.216 ± 0.22 kg/m3 and 265.238 ± 0.22 kg/m3
369.85 K, 4258.7 kPa | 265.211 ± 0.22 kg/m3
369.85 K, 4372.9 kPa | 299.086 ± 0.094 kg/m3
369.85 K, 4373 kPa | 299.075 ± 0.094 kg/m3
369.85 K, 4373.1 kPa | 299.089 ± 0.094 kg/m3
369.85 K, 4373.2 kPa | 299.082 ± 0.094 kg/m3
369.85 K, 5012.2 kPa | 338.098 ± 0.046 kg/m3
369.85 K, 5012.3 kPa | 338.097 ± 0.046 kg/m3
369.85 K, 5012.5 kPa | 338.099 ± 0.046 kg/m3
369.85 K, 5012.6 kPa | 338.102 ± 0.046 kg/m3
369.85 K, 5520.1 kPa | 352.211 ± 0.046 kg/m3
369.85 K, 5520.4 kPa | 352.212 ± 0.046 kg/m3
369.86 K, 554.46 kPa | 8.3303 ± 0.0033 kg/m3 and 8.3302 ± 0.0033 kg/m3
369.86 K, 927.79 kPa | 14.4327 ± 0.0041 kg/m3 and 14.4326 ± 0.0041 kg/m3
369.86 K, 4248.7 kPa | 234.526 ± 0.21 kg/m3
369.86 K, 4258.8 kPa | 265.251 ± 0.22 kg/m3 and 265.229 ± 0.22 kg/m3
369.86 K, 5520.6 kPa | 352.209 ± 0.046 kg/m3 and 352.21 ± 0.046 kg/m3
369.93 K, 4252.7 kPa | 197.999 ± 0.92 kg/m3 and 197.778 ± 0.92 kg/m3
369.93 K, 4252.8 kPa | 198.048 ± 0.92 kg/m3 [middle of 4 runs]
369.93 K, 4252.9 kPa | 197.901 ± 0.92 kg/m3
369.93 K, 4253.8 kPa | 232.64 ± 0.88 kg/m3
369.93 K, 4253.9 kPa | 232.539 ± 0.88 kg/m3
369.93 K, 4254 kPa | 231.862 ± 0.89 kg/m3 [middle of 5 runs]
369.93 K, 4255 kPa | 244.442 ± 0.88 kg/m3 [middle of 4 runs]
369.93 K, 4255.1 kPa | 244.551 ± 0.88 kg/m3 and 244.556 ± 0.88 kg/m3
369.93 K, 4255.2 kPa | 244.584 ± 0.88 kg/m3 and 244.7 ± 0.88 kg/m3
369.95 K, 4248.2 kPa | 177.636 ± 0.18 kg/m3
369.95 K, 4248.3 kPa | 177.67 ± 0.18 kg/m3 and 177.631 ± 0.18 kg/m3 and 177.707 ± 0.18 kg/m3
369.95 K, 4248.4 kPa | 177.657 ± 0.18 kg/m3
369.95 K, 4255.7 kPa | 214.994 ± 0.2 kg/m3 and 214.812 ± 0.2 kg/m3 and 213.928 ± 0.2 kg/m3
369.95 K, 4255.8 kPa | 214.794 ± 0.2 kg/m3 and 214.471 ± 0.2 kg/m3
369.95 K, 4256.2 kPa | 231.389 ± 0.22 kg/m3
369.95 K, 4256.3 kPa | 231.791 ± 0.22 kg/m3 and 231.342 ± 0.22 kg/m3
369.95 K, 4256.4 kPa | 233.445 ± 0.22 kg/m3 and 231.817 ± 0.22 kg/m3
369.95 K, 4268 kPa | 265.209 ± 0.27 kg/m3 and 265.217 ± 0.27 kg/m3 and 265.193 ± 0.26 kg/m3
369.95 K, 4268.2 kPa | 265.233 ± 0.26 kg/m3
369.96 K, 4268.2 kPa | 265.215 ± 0.26 kg/m3
370.03 K, 4259.9 kPa | 197.023 ± 0.29 kg/m3 and 197.111 ± 0.29 kg/m3 and 197.064 ± 0.29 kg/m3
370.03 K, 4260 kPa | 197.186 ± 0.29 kg/m3 [middle of 4 runs]
370.03 K, 4260.1 kPa | 197.3 ± 0.29 kg/m3
370.03 K, 4261.6 kPa | 225.827 ± 0.4 kg/m3 and 225.421 ± 0.4 kg/m3 and 225.472 ± 0.4 kg/m3
370.03 K, 4261.7 kPa | 225.904 ± 0.4 kg/m3 and 225.809 ± 0.4 kg/m3 and 225.73 ± 0.4 kg/m3
370.03 K, 4261.8 kPa | 225.954 ± 0.4 kg/m3 and 225.938 ± 0.4 kg/m3
370.03 K, 4263.3 kPa | 244.173 ± 0.47 kg/m3 and 244.096 ± 0.47 kg/m3
370.03 K, 4263.4 kPa | 244.149 ± 0.47 kg/m3 and 244.214 ± 0.47 kg/m3
370.03 K, 4263.5 kPa | 244.309 ± 0.47 kg/m3 and 244.177 ± 0.47 kg/m3 and 244.274 ± 0.47 kg/m3
370.03 K, 4263.6 kPa | 244.294 ± 0.47 kg/m3
370.05 K, 4254.8 kPa | 177.712 ± 0.085 kg/m3 and 177.662 ± 0.085 kg/m3
370.05 K, 4254.9 kPa | 177.695 ± 0.085 kg/m3 and 177.74 ± 0.085 kg/m3 and 177.673 ± 0.11 kg/m3
370.05 K, 4263.2 kPa | 211.406 ± 0.081 kg/m3 and 211.212 ± 0.081 kg/m3
370.05 K, 4263.4 kPa | 211.466 ± 0.081 kg/m3 and 212.306 ± 0.081 kg/m3 and 211.429 ± 0.081 kg/m3
370.05 K, 4264.2 kPa | 229.256 ± 0.091 kg/m3 and 228.799 ± 0.09 kg/m3
370.05 K, 4264.3 kPa | 229.262 ± 0.091 kg/m3 and 229.062 ± 0.091 kg/m3
370.05 K, 4277.5 kPa | 265.204 ± 0.36 kg/m3 [middle of 4 runs]
370.05 K, 4277.6 kPa | 265.242 ± 0.36 kg/m3
370.06 K, 4264.4 kPa | 229.28 ± 0.091 kg/m3
370.32 K, 4281.1 kPa | 196.636 ± 1.3 kg/m3
370.32 K, 4281.2 kPa | 196.743 ± 1.3 kg/m3 and 196.797 ± 1.3 kg/m3 and 196.727 ± 1.3 kg/m3
370.32 K, 4281.3 kPa | 196.729 ± 1.3 kg/m3
370.33 K, 4212.1 kPa | 146.689 ± 1.3 kg/m3 and 146.681 ± 1.3 kg/m3
370.33 K, 4212.2 kPa | 146.684 ± 1.3 kg/m3 [middle of 5 runs]
370.33 K, 4281.2 kPa | 196.669 ± 1.3 kg/m3
370.33 K, 4281.3 kPa | 197.033 ± 1.3 kg/m3 and 196.772 ± 1.3 kg/m3
370.33 K, 4284.6 kPa | 220.89 ± 1.4 kg/m3
370.33 K, 4284.7 kPa | 220.777 ± 1.4 kg/m3 and 220.874 ± 1.4 kg/m3 and 220.88 ± 1.4 kg/m3
370.33 K, 4284.8 kPa | 221.028 ± 1.4 kg/m3 and 221.044 ± 1.4 kg/m3 and 221.077 ± 1.4 kg/m3
370.33 K, 4284.9 kPa | 221.146 ± 1.4 kg/m3
370.33 K, 4288.5 kPa | 243.759 ± 1.5 kg/m3 and 243.744 ± 1.5 kg/m3 and 243.764 ± 1.5 kg/m3
370.33 K, 4288.6 kPa | 243.866 ± 1.5 kg/m3 [middle of 5 runs]
370.35 K, 4214.3 kPa | 147.029 ± 0.33 kg/m3 [middle of 5 runs]
370.35 K, 4274.3 kPa | 177.77 ± 0.3 kg/m3 and 177.777 ± 0.3 kg/m3
370.35 K, 4274.4 kPa | 177.843 ± 0.3 kg/m3 and 177.765 ± 0.3 kg/m3 and 177.808 ± 0.3 kg/m3
370.35 K, 4285.7 kPa | 209.496 ± 0.3 kg/m3 [middle of 4 runs]
370.35 K, 4285.8 kPa | 209.659 ± 0.3 kg/m3
370.35 K, 4287.8 kPa | 228.296 ± 0.31 kg/m3
370.35 K, 4287.9 kPa | 227.176 ± 0.31 kg/m3 and 227.342 ± 0.31 kg/m3
370.35 K, 4288 kPa | 227.25 ± 0.31 kg/m3
370.35 K, 4305.9 kPa | 265.204 ± 0.45 kg/m3
370.35 K, 4306 kPa | 265.214 ± 0.46 kg/m3 and 265.193 ± 0.46 kg/m3
370.35 K, 4306.1 kPa | 265.222 ± 0.46 kg/m3
370.36 K, 4288 kPa | 227.268 ± 0.31 kg/m3
370.36 K, 4306.1 kPa | 265.199 ± 0.46 kg/m3
370.82 K, 4238.2 kPa | 146.893 ± 1.2 kg/m3
